Data from patent publication US20130266557A1, “METHODS FOR TREATMENT OF A SARCOMA USING AN EPIMETABOLIC SHIFTER (COENZYME Q10)” (priority 2009, published 2013).

System: NCIES0808 cells
Test: Real-time PCR, Human Mitochondrial arrays
Assay type: cell-based
Conditions: CoQ10 doses and time points examined (50/100 uM; 3-48 hours)
Protocol: NCIES0808 cells were plated in T25 flasks at a density of 2×10^6 cells per flask in media or media containing 50 uM/100 uM Q10. All treatment groups were run in triplicate. Cells were harvested at 0, 3, 6, 24 or 48 hours. Pictures were taken to examine cell morphology before harvesting. To harvest cells, media was removed but saved to be able to collect floating apoptotic cells. Cells were trypsinized with 1 ml of trypsin-EDTA and the enzyme action was stopped by addition of 4 ml complete media. Trypsinized cells were added to the appropriate tube containing the media with dead cells. Cells were centrifuged at 1200 rpm for 5 minutes and media was aspirated leaving behind the cell pellet for RNA extraction. RNA isolation from cell pellets was carried out with the RNeasy kit (Qiagen, Valencia Calif.) according to the manufacturer's instructions. RNA samples were eluted from spin columns in water; absorbance was measured at 260 nm, 230 nm and 280 nm. The purity of RNA was evaluated by the 260/230 and 280/230 ratios. The concentration of RNA in all of the samples was calculated from absorbance values at […]. […] The ct values from each of the samples were normalized to three housekeeping genes and fold regulation of Q10 treated groups was compared to time matched controls from cells grown in regular media was calculated. […]

For Coenzyme Q10 [CoQ10], the “Genes modulated on Human Mitochondrial arrays” value was “did not reveal any modulated genes”.
